From the NIST ThermoML archive (doi:10.1016/j.jct.2009.02.007)

How the values were obtained:
[1] = 101.33 kPa, Liquid, Vibrating tube method
[2] = xn = mol fraction of the nth substance listed; settings: 101 kPa, Liquid, Vibrating tube method

O=Cc1ccccc1 [benzaldehyde]
[1]
Settings	mass density [kg/m3]
298.15 K	1044.2
303.15 K	1040.21
308.15 K	1036.15
313.15 K	1032.15

O=Cc1ccccc1 [benzaldehyde] + CCCCn1cc[n+](C)c1.F[B-](F)(F)F
mass density [kg/m3], [2]
Settings	x2 = 0.1001	x2 = 0.1998	x2 = 0.2997	x2 = 0.4	x2 = 0.4999	x2 = 0.5998	x2 = 0.6999	x2 = 0.7971	x2 = 0.8991
298.15 K	1078.64	1105.45	1127.3	1145.56	1160.76	1173.77	1184.7	1193.8	1202.44
303.15 K	1072.78	1098.6	1119.46	1136.76	1151.14	1163.4	1173.86	1182.59	1190.51
308.15 K	1068.6	1094.81	1116.11	1133.67	1148.32	1160.74	1171.52	1180.59	1188.53
313.15 K	1064.7	1090.93	1112.3	1129.92	1144.5	1156.92	1167.64	1176.6	1184.48

CCCCn1cc[n+](C)c1.F[B-](F)(F)F [1-butyl-3-methylimidazolium tetrafluoroborate]
[1]
Settings	mass density [kg/m3]
298.15 K	1211.03
303.15 K	1197.45
308.15 K	1194.6
313.15 K	1190.44
